The source of these data is PMC10675340, “Preparation, Radiolabeling with ^68Ga/^177Lu and Preclinical Evaluation of Novel Angiotensin Peptide Analog: A New Class of Peptides for Breast Cancer Targeting” (Pharmaceuticals, 2023).

One may read the Kd as a measure of binding affinity in units of concentration.

Series [1] can be described thus: In vitro metabolic stability in human plasma. Type of series: in vitro ADME. The conditions noted are these: 37 °C, radio-HPLC. How it is done:
High proteolytic stability is an important aspect of the tumor-targeting peptides to deliver the highest possible tumor-targeting effect. The extent of proteolytic degradation of the ^177Lu-AngII peptide was determined by incubating the radiolabeled peptide with human plasma at 37° C for up to 5 h. […] A limited release of free ^177Lu amount (up to 10%) indicates the high in vitro plasma stability of the radiolabeled peptide, with low enzymatic breakdown by plasma proteases (Figure 2).
Human plasma was obtained from the institutional blood bank from volunteers’ blood donors (with consent). The metabolic stability of ^177Lu-DOTA-AngII peptide was determined following a method essentially as described previously. In summary, the radiolabeled peptide (50 μL) was mixed with plasma (400 μL) and incubated in duplicate at 37 °C for up to 5 h. After incubation, the plasma proteins were precipitated using a mixture of CH3CN/EtOH (1:1 v/v, 400 μL). The supernatant layer was collected by centrifugation (5000 rpm for 5 min), filtered through a 0.2-µm Millex GP filter, and analyzed by radio-HPLC to assess the product stability.

Another series has as its system Balb/c mice. In words: In vivo biodistribution in normal Balb/c mice. The conditions noted are these: Balb/c mice. More on the design: species or system mouse. How it is done: The in vivo biodistribution of ^68Ga-labeled AngII peptide analog was carried out in female Balb/c mice, at various time points, to observe the uptake in the normal tissues and organs and find the excretion route of the radiolabeled peptides. […] Low uptake and retention of the radiopeptide in the liver varying from 1.54 ± 0.28% ID/g at 45 min to 0.48 ± 0.17% ID/g at 2 h p.i. is probably related to the high hydrophilicity (log p = −0.55 ± 0.11) of the ^68Ga-labeled AngII peptide analog. […] The efficient clearance from the kidneys is possibly associated with the urinary excretion of the radiopeptide. […] The low amount of uptake in the bone (up to 0.37 ± 0.14% ID/g) (Table 2) indicates the minimal breakdown of the ^68Ga-labeled AngII peptide complex in vivo combined with the minor release of free ^68Ga. These findings are in agreement with the high in vitro metabolic stability observed in the human plasma for the radiolabeled AngII peptide. The accumulation in the extremely vascular organ lungs was also low (up to 1.11 ± 0.37% ID/g) signifying a low trapping by the lungs.
Approval from the Institutional Animal Care and Use Committee was obtained for the animal protocol used. Additionally, strict international regulations govern the safe and proper use of laboratory animals employed during animal experiments. In vivo, biodistribution was performed on healthy female mice according to the methods essentially described previously. In summary, Balb/c mice (n = 5 per time point, body mass 20–25 g) at 45 min and 2 h were administered with the HPLC-purified AngII peptide (~1 µg, 100 µL, 0.925–1.85 MBq; 25–50 µCi) via lateral tail vein injection. At the specified time points, the animals were sacrificed by cervical dislocation. A fraction of the blood was collected from cardiac puncture. Urine was also collected and measured with the bladder contents. Major organs, such as the lungs, pancreas, stomach, liver, heart, kidneys, and intestines were isolated, weighed, and measured for radioactivity. The uptake values of the radiolabeled peptide in different organs are expressed as the percent injected dose per gram (% ID/g) of tissue/organ. The radioactivity in the urine with bladder contents is shown as the percent of the injected dose per organ (% ID/organ). To calculate the injected dose, a standard (20-fold dilution of injected dose) was prepared and counted together with animal tissue samples.

The subject of series [2] is human breast cancer cells. The note with it: cited from earlier work. On the procedure: The values were 27.73 ± 5.97 nM for MDA-MB-231 and 35.14 ± 7.09 nM for the MCF7 breast cancer cell line. Thes ...

Where a SMILES comes first, the peptide text is derived from it. Where no end group is shown, it is not given here. [ ]: non-standard residue; d: D form. The star is where a group is joined. DOTA = O=C(O)CN1CCN(CC(=O)O)CCN(CC(=O)*)CCN(CC(=O)O)CC1; βAla = NCCC(=O)O

On to `CC[C@H](C)[C@H](NC(=O)[C@H](Cc1ccc(O)cc1)NC(=O)[C@@H](NC(=O)[C@H](CCCNC(=N)N)NC(=O)[C@H](CC(=O)O)NC(=O)CCNC(=O)[C@H](CCCCN)NC(=O)CN1CCN(CC(=O)O)CCN(CC(=O)O)CCN(CC(=O)O)CC1)C(C)C)C(=O)N[C@@H](Cc1c[nH]cn1)C(=O)N1CCC[C@H]1C(=O)N[C@@H](Cc1ccccc1)C(=O)N[C@@H](Cc1c[nH]c2ccccc12)C(=O)N[C@@H](CCCCN)C(=O)N[C@@H](Cc1ccc(O)cc1)C(N)=O` [^177Lu-DOTA-AngII peptide, metal not drawn] ({DOTA}-K[βAla]DRVYIHPFWKY-NH2), for which, in series [1] (human plasma 400 μL + 50 μL radiopeptide, duplicate, CH3CN/EtOH precipitation, read-out: Radioactivity still associated with the radiolabeled peptide), the remaining at 5 h is over 90%. In addition, the “Release of free ^177Lu” value in series [1] (human plasma, 5 h) is “up to 10%”. Moreover, the “Biological and excretion pattern compared with the ^68Ga-labeled counterpart” value in the series on Balb/c mice was “more or less the same biological and excretion pattern”.

“^125I-angiotensin II: radioiodinated angiotensin II from the literature, ref 13 (DRVYIHPF; also: radioiodinated (125I label), site not given here; UniProt P01019 25-32, looked up)”: in series [2], the equilibrium dissociation constant (Kd) was about 60 nM.
